Test results: article PMC5789083, “Mechanisms driving the antibacterial and antibiofilm properties of Hp1404 and its analogue peptides against multidrug-resistant Pseudomonas aeruginosa” (Scientific Reports, 2018)
Like-named read-outs stand apart in the source and are kept apart here. Where no end group is shown, it is not given here.

Key:
[1] = system: Pseudomonas aeruginosa and MRPA strains; test: microbe, parasite or virus in culture; assay type: cell-based; details: broth micro-dilution, 37 °C, 18–24 h
Text: Gram-negative (Pseudomonas aeruginosa ATCC 27853) bacterial strains were obtained from the ATCC (American Type Culture Collection; Manassas, VA, USA). Multidrug-resistant strains (Pseudomonas aeruginosa 138, 431, 434, 557, 559, 778, 1034, 1162, 3290, 3399, 3592, 3904, 4007, 4319, 4891, 5018, and 671973) were obtained from the Chonnam National University Hospital (Gwangju, South Korea).
(§1) We examined the activity of each peptide against both pseudomonas aeruginosa and multidrug-resistant strains. The minimal inhibitory concentrations (MICs) of peptides were determined using the broth micro-dilution assay as described previously. Briefly, bacterial strains were cultivated with shaking overnight at 37 °C. The next day, they were diluted to a density of 2 × 10^5 CFU/mL with growth medium. Peptides were serially diluted with 10 mM sodium phosphate buffer. 50 µL bacterial aliquots were mixed with an equal volume of peptide solution, and incubated at 37 °C for 18–24 h. Inhibition of bacterial growth was determined by measuring the absorbance at 600 nm using a Versa Max microplate reader (Molecular Devices, Sunnyvale, CA, USA). The test was performed in triplicate.

[2] = system: P. aeruginosa strains (biofilm formation); assay type: cell-based, Pseudomonas aeruginosa; details: 24 h, 37 °C, crystal violet OD595
Description: To evaluate the ability of bacterial strains to form biofilms either in the absence or presence of peptides, antibiotic-susceptible P. aeruginosa (ATCC 27853), and various strains of MDR P. aeruginosa were cultured in nutrient broth (NB). […]. The biofilms were fixed with 100% methanol for 15 min, stained with 0.1% crystal violet (CV) for 1 h, and rinsed three times with distilled water (dH2O). After the addition of 95% ethanol, biofilm mass was quantified by measuring OD at 595 nm using a Versa-Max microplate ELISA reader (Molecular Devices). Results were expressed as the percentage of biofilm formed with respect to the control. […] All experiments were performed at least in triplicate.

P. aeruginosa 27853 = assay type: cell-based, Pseudomonas aeruginosa
Description: as §1
The effects of various cations on the antibacterial activities of the parental and analogue peptides against P. aeruginosa 27853 were evaluated as previously described. Bacteria was treated with peptides at a final concentration 25 µM in the presence of physiological salts such as NaCl (50 mM, 100 mM, and 150 mM), CaCl2 (1.25 mM, 2.5 mM, and 5 mM), or MgCl2 (0.5 mM, 1 mM, and 2 mM). The MIC values were determined as described above.

HaCaT cells = test: Cytotoxicity, MTT assay; assay type: cell-based, human; details: 50 µM, 24 h
Description: We used the MTT assay to evaluate the toxicity of the peptides toward human skin epithelial cells (HaCaT) as previously described. Briefly, HaCaT cells were seeded at a density of 2 × 10^4 cells per well in 96-well microtiter plates in Dulbecco’s modified Eagle’s medium (DMEM) containing 10% foetal bovine serum (FBS) at 37 °C under 5% CO2 atmosphere. The next day, peptides were added to each well at various final concentrations (higher concentration of 200 µM). After 24 h incubation, culture supernatants were removed. 0.5 mg/mL MTT was added to each well, and the plates were incubated for 4 h at 37 °C. The medium was replaced by dimethyl sulfoxide (DMSO) to dissolve the formazan crystals formed in the wells. The absorbance at 570 nm was measured using a Versa-Max microplate ELISA reader (Molecular Devices). The viability rate was calculated using the following formula: Cell viability (%) = (absorbance of treated sample)/(absorbance of control) × 100.

[3] = P. aeruginosa 138 (multidrug-resistant), triplicate
[4] = P. aeruginosa 431 (multidrug-resistant), triplicate
[5] = P. aeruginosa 434 (multidrug-resistant), triplicate
[6] = P. aeruginosa 557 (multidrug-resistant), triplicate
[7] = P. aeruginosa 559 (multidrug-resistant), triplicate
[8] = P. aeruginosa 778 (multidrug-resistant), triplicate
[9] = P. aeruginosa 1034 (multidrug-resistant), triplicate
[10] = P. aeruginosa 1162 (multidrug-resistant), triplicate
[11] = P. aeruginosa 3290 (multidrug-resistant), triplicate
[12] = P. aeruginosa 3399 (multidrug-resistant), triplicate
[13] = P. aeruginosa 3543 (multidrug-resistant), triplicate
[14] = P. aeruginosa 3592 (multidrug-resistant), triplicate
[15] = P. aeruginosa 3904 (multidrug-resistant), triplicate
[16] = P. aeruginosa 4007 (multidrug-resistant), triplicate
[17] = P. aeruginosa 4319 (multidrug-resistant), triplicate
[18] = P. aeruginosa 4891 (multidrug-resistant), triplicate
[19] = P. aeruginosa 5018 (multidrug-resistant), triplicate
[20] = P. aeruginosa 671973 (multidrug-resistant), triplicate
[21] = P. aeruginosa ATCC 27853, 2 × 10^5 CFU/mL, A600, triplicate
[22] = P. aeruginosa 27853, 5 × 10^5 CFU/mL, 0.2% glucose

Substance	MIC [1, 3] [µM]	MIC [1, 4] [µM]	MIC [1, 5] [µM]	MIC [1, 6] [µM]	MIC [1, 7] [µM]	MIC [1, 8] [µM]	MIC [1, 9] [µM]	MIC [1, 10] [µM]	MIC [1, 11] [µM]	MIC [1, 12] [µM]	MIC [1, 13] [µM]	MIC [1, 14] [µM]	MIC [1, 15] [µM]	MIC [1, 16] [µM]	MIC [1, 17] [µM]	MIC [1, 18] [µM]	MIC [1, 19] [µM]	MIC [1, 20] [µM]	MIC [1, 21] [µM]	MBIC ([2]; P. aeruginosa 434) [µM]	further results
ILKKLLKKVKKI-NH2 [Hp1404-T1e]	6.25	3.13	3.13	3.13	6.25	1.56	1.56	1.56	6.25	0.78	12.5	1.56	3.13	3.13	3.13	1.56	1.56	1.56	1.56	12.5	MBIC ([2]; P. aeruginosa 559): 12.5 µM; MBIC ([2]; P. aeruginosa 778): 6.25 µM; MBIC ([2]; P. aeruginosa 1034): 6.25 µM; MBIC ([2]; P. aeruginosa 1162): 6.25 µM; MBIC ([2]; P. aeruginosa 3399): 12.5 µM; MBIC ([2]; P. aeruginosa 3543): 50 µM; MBIC ([2]; P. aeruginosa 4007): 12.5 µM; MBIC [2, 22]: 12.5 µM; MIC (P. aeruginosa 27853; CaCl2 1.25 mM): 6.25 µM; MIC (P. aeruginosa 27853; CaCl2 2.5 mM): 12.5 µM; MIC (P. aeruginosa 27853; CaCl2 5 mM): >25 µM; MIC (P. aeruginosa 27853; MgCl2 0.5 mM): 3.13 µM; MIC (P. aeruginosa 27853; MgCl2 1 mM): 3.13 µM; MIC (P. aeruginosa 27853; MgCl2 2 mM): 12.5 µM; MIC (P. aeruginosa 27853; NaCl 50 mM): 6.25 µM; MIC (P. aeruginosa 27853; NaCl 100 mM): 6.25 µM; MIC (P. aeruginosa 27853; NaCl 150 mM): 12.5 µM; survival rate of HaCaT cells (HaCaT cells): 100%
GILGKLWEGVKSIF-NH2 [Hp1404]	12.5	12.5	12.5	6.25	25	12.5	6.25	12.5	12.5	6.25	6.25	6.25	6.25	25	12.5	6.25	12.5	3.13	12.5	25	MBIC ([2]; P. aeruginosa 559): 50 µM; MBIC ([2]; P. aeruginosa 778): 25 µM; MBIC ([2]; P. aeruginosa 1034): 25 µM; MBIC ([2]; P. aeruginosa 1162): 25 µM; MBIC ([2]; P. aeruginosa 3399): 12.5 µM; MBIC ([2]; P. aeruginosa 3543): 6.25 µM; MBIC ([2]; P. aeruginosa 4007): 25 µM; MBIC [2, 22]: 25 µM; MIC (P. aeruginosa 27853; CaCl2 1.25 mM): >25 µM; MIC (P. aeruginosa 27853; CaCl2 2.5 mM): >25 µM; MIC (P. aeruginosa 27853; CaCl2 5 mM): >25 µM; MIC (P. aeruginosa 27853; MgCl2 0.5 mM): 25 µM; MIC (P. aeruginosa 27853; MgCl2 1 mM): 25 µM; MIC (P. aeruginosa 27853; MgCl2 2 mM): >25 µM; MIC (P. aeruginosa 27853; NaCl 50 mM): 25 µM; MIC (P. aeruginosa 27853; NaCl 100 mM): >25 µM; MIC (P. aeruginosa 27853; NaCl 150 mM): >25 µM; survival rate of HaCaT cells (HaCaT cells): 30%
